Source: patent publication USRE48842E1, “Pyrimido-pyrrolo-oxazine-dione compound inhibitors of the cystic fibrosis transmembrane conductance regulator protein and uses therefor” (The Regents of the University of California, priority 2011, dated 2021)

What follows are molecules tested against human wildtype CFTR (Homo sapiens, UniProt P13569) (assay: Fluorescence plate reader assay of CFTR inhibition (iodide influx)). Conditions: not given.
Type: cell-based
Set-up: expressed in transfected cells; host or cells: Fischer rat thyroid (FRT) cells
Experimental: Cell Culture and Plate Reader Assay of CFTR Inhibition—Fischer rat thyroid (FRT) cells co-expressing human wild type CFTR and the halide indicator YFP-H148Q were cultured in 96-well black-walled microplates (Corning Costar) at a density of 20,000 cells per well in Coon's modified F12 medium containing 10% fetal bovine serum, 2 mM L-glutamine, 100 U/mL penicillin and 100 μg/mL streptomycin. CFTR chloride conductance was assayed at 48 h after plating on a FluoStar fluorescence plate reader (BMG Lab Technologies) as described (see, e.g., Ma et al., J Clin Invest. 2002, supra). Each well was washed 3 times with PBS, leaving 60 μL PBS. Test compounds were added and incubated with the cells for 45 min. Then, 5 μL of a CFTR-activating cocktail (10 μM forskolin, 100 μM IBMX, 20 μM apigenin in PBS) was added. After 15 min, each well was assayed for iodide influx by recording fluorescence continuously (200 ms per point) for 2 s (baseline) and then for 10 s after rapid addition of 160 μL of isosmolar PBS in which 137 mM chloride was replaced by iodide. The initial rate of iodide influx was computed from fluorescence data by non-linear regression.
Initial testing of the compounds for the capability to inhibit CFTR was performed using a plate-reader assay in which iodide influx was measured in FRT cells co-expressing human wild type CFTR and the iodide-sensing yellow fluorescent protein YFP-H148Q/1152L. […] Table B below provides IC50 values for PPQ and BPO compounds.
The relative IC50 values obtained from the plate reader assay are useful for comparisons. Absolute IC50 values obtained from the plate-reader assay are approximate, generally underestimating compound potency because of assay non-linearities, pH-dependent YFP fluorescence, the use of iodide instead of chloride, and compound dilution at the start of the assay (see, e.g., Galietta et al., Am. J. Physiol. Cell Physiol. 281:C1734-42 (2001)).

Chain of human wildtype CFTR (P13569 whole entry): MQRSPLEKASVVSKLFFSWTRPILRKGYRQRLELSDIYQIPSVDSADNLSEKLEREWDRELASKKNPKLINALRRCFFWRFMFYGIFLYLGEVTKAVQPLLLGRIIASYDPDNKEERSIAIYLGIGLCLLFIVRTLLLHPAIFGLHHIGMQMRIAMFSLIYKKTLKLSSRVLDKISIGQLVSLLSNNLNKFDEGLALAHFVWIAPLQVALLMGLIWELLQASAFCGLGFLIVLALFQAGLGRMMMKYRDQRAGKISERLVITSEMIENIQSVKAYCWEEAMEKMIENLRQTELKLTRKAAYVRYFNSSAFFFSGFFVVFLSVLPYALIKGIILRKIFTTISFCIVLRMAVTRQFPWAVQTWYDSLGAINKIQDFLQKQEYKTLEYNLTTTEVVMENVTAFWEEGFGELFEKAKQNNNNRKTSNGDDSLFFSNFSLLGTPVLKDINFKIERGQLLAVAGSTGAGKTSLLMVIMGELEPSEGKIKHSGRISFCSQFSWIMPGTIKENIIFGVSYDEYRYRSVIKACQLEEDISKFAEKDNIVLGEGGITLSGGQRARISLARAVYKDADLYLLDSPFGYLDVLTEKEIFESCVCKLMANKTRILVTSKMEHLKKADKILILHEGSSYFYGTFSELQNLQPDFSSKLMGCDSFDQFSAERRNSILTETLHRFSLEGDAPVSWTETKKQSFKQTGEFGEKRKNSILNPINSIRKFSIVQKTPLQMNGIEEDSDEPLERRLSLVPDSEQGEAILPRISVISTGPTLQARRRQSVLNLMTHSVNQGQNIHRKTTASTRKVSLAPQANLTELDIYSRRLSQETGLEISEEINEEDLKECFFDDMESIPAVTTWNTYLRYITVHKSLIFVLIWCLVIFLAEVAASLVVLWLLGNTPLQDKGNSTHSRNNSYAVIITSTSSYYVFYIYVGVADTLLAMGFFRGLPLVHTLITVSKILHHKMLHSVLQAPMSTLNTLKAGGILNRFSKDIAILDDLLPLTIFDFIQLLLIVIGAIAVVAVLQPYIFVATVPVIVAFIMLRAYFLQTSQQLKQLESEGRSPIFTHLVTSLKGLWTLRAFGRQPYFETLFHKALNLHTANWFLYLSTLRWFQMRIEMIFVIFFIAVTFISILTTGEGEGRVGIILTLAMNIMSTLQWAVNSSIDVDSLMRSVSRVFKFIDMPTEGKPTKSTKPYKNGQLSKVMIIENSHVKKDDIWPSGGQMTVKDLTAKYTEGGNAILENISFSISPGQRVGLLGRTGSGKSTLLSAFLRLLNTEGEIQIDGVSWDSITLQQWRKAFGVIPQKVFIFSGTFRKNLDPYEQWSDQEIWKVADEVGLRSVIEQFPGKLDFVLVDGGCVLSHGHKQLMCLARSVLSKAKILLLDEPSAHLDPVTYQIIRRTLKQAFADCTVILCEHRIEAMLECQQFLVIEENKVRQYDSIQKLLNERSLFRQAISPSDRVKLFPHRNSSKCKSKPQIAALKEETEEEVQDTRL

SMILES | CFTR inhibition activity (in words)
Cc1ccc(C2c3c4c(c(-c5ccccc5)n3-c3ccccc3N2C)c(=O)n(C)c(=O)n4C)o1 (stereo not shown) [PPQ-5, 5,7,9-Trimethyl-6-(5-methylfuran-2-yl)-11-phenyl-5,6-dihydropyrimido[4′,5′-3,4]pyrrolo[1,2-a]quinoxaline-8,10-(7H,9H)-dione] | weakly active

Same assay, conditions: Determined by micro-plate reader assay; FRT cells co-expressing human wild type CFTR and YFP-H148Q

SMILES | IC50 (μm)^A | IC50 [nM]
Cc1ccc(C2c3c4c(c(-c5ccccc5)n3-c3ccccc3N2S(C)(=O)=O)c(=O)n(C)c(=O)n4C)o1 (stereo not shown) [PPQ-1, 7,9-Dimethyl-6-(5-methylfuran-2-yl)-5-(methylsulfonyl)-11-phenyl-5,6-dihydropyrimido[4′,5′-3,4]pyrrolo[1,2-a]quinoxaline-8,10-(7H,9H)-dione] | inactive | –
Cc1ccc(C2c3c4c(c(-c5ccccc5)n3-c3ccccc3N2N=O)c(=O)n(C)c(=O)n4C)o1 (stereo not shown) [PPQ-4, 7,9-Dimethyl-6-(5-methylfuran-2-yl)-5-nitroso-11-phenyl-5,6. -dihydropyrimido[4′,5′-3,4]pyrrolo[1,2-a]quinoxaline-8,10-(7H,9H)-dione] | – | 2000
Cc1ccc(C2c3c4c(c(-c5ccccc5)n3-c3ccccc3N2C)c(=O)n(C)c(=O)n4C)o1 (stereo not shown) [PPQ-5, 5,7,9-Trimethyl-6-(5-methylfuran-2-yl)-11-phenyl-5,6-dihydropyrimido[4′,5′-3,4]pyrrolo[1,2-a]quinoxaline-8,10-(7H,9H)-dione] | – | 1000
Cn1c(=O)c2c(-c3ccccc3)n3c(c2n(C)c1=O)C(c1ccc(CO)o1)Nc1ccccc1-3 (stereo not shown) [PPQ-14, 7,9-Dimethyl-11-phenyl-6-(5-hydroxymethylfuran-2-yl)-5,6-dihydropyrimido[4′,5′-3,4]pyrrolo[1,2-a]quinoxaline-8,10-(7H,9H)-dione] | inactive | –
Cc1ccc(C2Nc3ccccc3-n3c(-c4ccccc4)c4c(=O)n(C)c(=O)n(C)c4c32)s1 (stereo not shown) [PPQ-7, 7,9-Dimethyl-6-(5-methylthiophene-2-yl)-11-phenyl-5,6-dihydropyrimido[4′,5′-3,4]pyrrolo[1,2-a]quinoxaline-8,10-(7H,9H)-dione] | – | 1700
Cc1ccc(C2Oc3ccccc3-n3c(-c4ccccc4)c4c(=O)n(C)c(=O)n(C)c4c32)o1 (stereo not shown) [BPO-18, 7,9-Dimethyl-6-(5-methylfuran-2-yl)-11-phenyl-6H-benzo[b]pyrimido[4′,5′-3,4]pyrrolo[1,2-d]oxazine-8,10-(7H,9H)-dione] | – | 150
Cc1cccc(-c2c3c(=O)n(C)c(=O)n(C)c3c3n2-c2ccccc2OC3c2ccc(Cl)o2)c1 (stereo not shown) [BPO-19, 6-(5-Chlorofuran-2-yl)-7,9-dimethyl-11-(m-tolyl)-6Hbenzo[b]pyrimido[4′,5′-3,4]pyrrolo[1,2-d]oxazine-8,10-(7H,9H)-dione] | – | 370
Cc1ccc(C2c3c4c(c(-c5ccccc5)n3-c3ccccc3N2C(=O)CCl)c(=O)n(C)c(=O)n4C)o1 (stereo not shown) [PPQ-2, 5-(2-Chloroacetyl)-7,9-dimethyl-6-(5-methylfuran-2-yl)-11-phenyl-5,6-dihydropyrimido[4′,5′-3,4]pyrrolo[1,2-a]quinoxaline-8,10-(7H,9H)-dione] | inactive | –
Cc1cc(C2Nc3ccccc3-n3c(-c4ccccc4)c4c(=O)n(C)c(=O)n(C)c4c32)oc1C (stereo not shown) [PPQ-8, 7,9-Dimethyl-6-(4,5-dimethylfuran-2-yl)-11-phenyl-5,6-dihydropyrimido[4′,5′-3,4]pyrrolo[1,2-a]quinoxaline-8,10-(7H,9H)-dione] | – | 1700
Cn1c(=O)c2c(-c3ccccc3)n3c(c2n(C)c1=O)C(c1cc2ccccc2o1)Nc1ccccc1-3 (stereo not shown) [PPQ-15, 6-(Benzofuran-2-yl)-7,9-dimethyl-11-phenyl-5,6-dihydropyrimido[4′,5′-3,4]pyrrolo[1,2-a]quinoxaline-8,10-(7H,9H)-dione] | inactive | –
Cc1cccc(-c2c3c(=O)n(C)c(=O)n(C)c3c3n2-c2ccccc2OC3c2ccc(C)o2)c1 (stereo not shown) [BPO-20, 7,9-Dimethyl-6-(5-methylfuran-2-yl)-11-(m-tolyl)-6H-benzo[b]pyrimido[4′,5′-3,4]pyrrolo[1,2-d]oxazine-8,10-(7H,9H)-dione] | – | 600
Cn1c(=O)c2c(-c3ccccc3)n3c(c2n(C)c1=O)C(c1ccc(C(F)(F)F)o1)Nc1ccccc1-3 (stereo not shown) [PPQ-12, 7,9-Dimethyl-11-phenyl-6-(5-trifluoromethylfuran-2-yl)-5,6-dihydropyrimido[4′,5′-3,4]pyrrolo[1,2-a]quinoxaline-8,10-(7H,9H)-dione] | – | 350
